Experimental findings from patent US20110015162A1, “15,16-Methylene-17-hydroxy-19-nor-21-carboxylic acid-steroid Y-lactone derivative, use thereof and medicinal products containing the derivative” (Bayer Schering Pharma Aktiengesellschaft, priority 2007, published 2011) are described below.

In one assay the target is T1, progesterone receptor (Homo sapiens, UniProt P06401).
T1 construct: made in house; host or cells: Hi5 insect cells (cytosol)
T1 sequence (P06401 1-933): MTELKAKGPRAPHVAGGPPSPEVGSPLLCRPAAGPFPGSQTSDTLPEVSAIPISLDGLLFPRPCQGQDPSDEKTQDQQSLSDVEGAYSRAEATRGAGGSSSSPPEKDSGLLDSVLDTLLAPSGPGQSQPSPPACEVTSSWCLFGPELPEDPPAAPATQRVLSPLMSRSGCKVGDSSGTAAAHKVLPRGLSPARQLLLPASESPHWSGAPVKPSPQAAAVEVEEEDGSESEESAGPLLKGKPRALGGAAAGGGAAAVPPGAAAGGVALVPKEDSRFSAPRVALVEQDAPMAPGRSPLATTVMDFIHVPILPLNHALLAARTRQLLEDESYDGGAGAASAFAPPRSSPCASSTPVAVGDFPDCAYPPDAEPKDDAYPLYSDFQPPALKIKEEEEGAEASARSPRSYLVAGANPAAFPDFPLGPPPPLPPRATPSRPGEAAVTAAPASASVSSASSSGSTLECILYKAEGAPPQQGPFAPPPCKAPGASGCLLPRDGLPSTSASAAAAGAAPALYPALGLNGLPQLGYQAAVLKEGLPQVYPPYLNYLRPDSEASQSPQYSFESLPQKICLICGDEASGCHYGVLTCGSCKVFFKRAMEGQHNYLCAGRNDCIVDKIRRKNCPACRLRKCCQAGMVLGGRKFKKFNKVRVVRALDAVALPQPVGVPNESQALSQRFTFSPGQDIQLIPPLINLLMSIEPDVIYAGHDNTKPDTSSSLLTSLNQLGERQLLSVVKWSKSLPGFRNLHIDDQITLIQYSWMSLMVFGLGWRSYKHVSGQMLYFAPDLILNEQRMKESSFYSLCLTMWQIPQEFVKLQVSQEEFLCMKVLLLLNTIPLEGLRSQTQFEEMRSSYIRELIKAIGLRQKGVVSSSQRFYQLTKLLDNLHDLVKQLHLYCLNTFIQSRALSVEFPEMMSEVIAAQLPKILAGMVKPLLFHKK
In words: Progesterone receptor binding test. The conditions noted are these: CF 1 = affinity of progesterone; CF >1 lower affinity, <1 higher affinity. As for the experimental part:
1. Progesterone Receptor Binding Test:
(§1) Using cytosol from progesterone receptor-expressing insect cells (Hi5), competitive binding to the progesterone receptor was determined from the ability to displace ^3H-progesterone as reference substance from the receptor.

Assay [1] concerns the target T2, mineralocorticoid receptor (Homo sapiens, UniProt P08235).
T2 sequence (P08235 1-984): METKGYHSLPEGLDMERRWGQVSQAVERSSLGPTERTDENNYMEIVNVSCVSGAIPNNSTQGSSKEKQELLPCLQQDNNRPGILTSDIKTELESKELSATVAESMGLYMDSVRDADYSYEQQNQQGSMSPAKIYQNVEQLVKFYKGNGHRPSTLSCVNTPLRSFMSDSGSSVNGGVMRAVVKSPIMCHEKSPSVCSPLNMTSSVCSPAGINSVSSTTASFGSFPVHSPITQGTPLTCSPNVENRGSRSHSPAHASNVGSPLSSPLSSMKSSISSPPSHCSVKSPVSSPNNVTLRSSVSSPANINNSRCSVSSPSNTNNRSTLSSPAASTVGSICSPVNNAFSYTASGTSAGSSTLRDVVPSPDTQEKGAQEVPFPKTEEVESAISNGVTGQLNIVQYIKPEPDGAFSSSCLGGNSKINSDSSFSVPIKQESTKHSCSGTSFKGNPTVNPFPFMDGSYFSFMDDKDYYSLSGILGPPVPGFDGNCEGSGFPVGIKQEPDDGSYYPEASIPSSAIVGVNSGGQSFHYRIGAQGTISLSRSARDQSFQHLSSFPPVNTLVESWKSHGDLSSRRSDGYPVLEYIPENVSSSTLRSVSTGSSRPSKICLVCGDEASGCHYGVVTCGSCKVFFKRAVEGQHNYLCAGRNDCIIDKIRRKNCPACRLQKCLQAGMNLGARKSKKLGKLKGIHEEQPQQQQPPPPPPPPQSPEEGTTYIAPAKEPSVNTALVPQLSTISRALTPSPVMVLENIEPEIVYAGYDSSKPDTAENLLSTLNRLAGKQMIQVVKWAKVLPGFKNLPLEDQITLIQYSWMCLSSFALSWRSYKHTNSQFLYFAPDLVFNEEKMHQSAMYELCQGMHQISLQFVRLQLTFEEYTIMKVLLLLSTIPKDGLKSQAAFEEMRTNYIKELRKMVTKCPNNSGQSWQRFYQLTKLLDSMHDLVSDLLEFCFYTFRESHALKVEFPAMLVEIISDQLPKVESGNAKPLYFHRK
In words: Antimineralocorticoid action by transactivation test (MDCK reporter cells).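 For Emax: percent inhibition of the aldosterone-stimulated reporter signal.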 More on the design: expressed in transfected cells; host or cells: MDCK cells. Type of assay: cell-based. As for the experimental part: The test compounds were added eight hours later, and the cells were incubated with the compounds for 16 hours. The tests were carried out in triplicate. At the end of incubation the medium containing the effector was removed and replaced with lysis buffer. After luciferase assay substrate (Promega, #E1501) had been added, the 96-well plates were then put in a microplate luminometer (Pherastar, BMG Labtech), and the luminescence was measured. The IC50 values were evaluated using software for calculating dose-effect relations.
5. Determination of Antimineralocorticoid Action by Means of Transactivation Tests:
The antimineralocorticoid activity of the test substances was determined as for the transactivation tests described above.
The following modifications were undertaken: In this case reporter cell lines were used (MDCK cells) that express the human mineralocorticoid receptor, and transiently contain a reporter construct that contains luciferase under the control of a steroid hormone-responsive promoter.

Assay [2] addresses T2, mineralocorticoid receptor. In words: Mineralocorticoid receptor binding test. More on the design: made in house; host or cells: Hi5 insect cells (cytosol). The note with it: reference substance 3H-aldosterone, cytosol from MR-expressing insect cells (Hi5). As for the experimental part: as §1
2. Mineralocorticoid Receptor Binding Test:
The test was carried out as in 1, with the following modifications: cytosol from mineralocorticoid receptor-expressing insect cells (Hi5) was used, and the reference substance was ^3H-aldosterone.

The target of assay [3] is T3, fusion protein from the PR-ligand-binding domain and a Gal4-transactivation domain (Homo sapiens, UniProt P06401).
T3 construct: expressed in transfected cells; host or cells: CHO K1 cells, stably transfected
The assay is described as follows: Progestational action by transactivation test (CHO K1 reporter cells). The note with it: CHO-K1, 16 h, read-out: Progesterone receptor Agonism efficacy. Type of assay: cell-based. As for the experimental part:
4. Determination of Progestational Action by Means of Transactivation Tests:
The culture medium used for culture of the cells used for the assay was DMEM (Dulbecco's Modified Eagle Medium: […] glucose; PAA, #E15-009) with 10% FCS (Biochrom, S0115, batch #615B), 4 mM L-glutamine, 1% penicillin/streptomycin, 1 mg/ml G418 and 0.5 μg/ml puromycin.
Reporter cell lines (CHO K1 cells stably transfected with a fusion protein from the PR-ligand-binding domain and a Gal4-transactivation domain and a reporter construct, which contained luciferase under the control of a Gal4-responsive promoter) were seeded at a density of 4×10^4 cells per well in white, opaque tissue culture plates each with 96 wells (PerkinElmer, #P12-106-017) and kept in culture medium with 3% DCC-FCS (serum treated with activated charcoal to remove interfering components contained in the serum). The test compounds were added eight hours later, and the cells were incubated with the compounds for 16 hours. The tests were carried out in triplicate. At the end of incubation the medium containing the effector was removed and replaced with lysis buffer. After luciferase assay substrate (Promega, #E1501) had been added, the 96-well plates were then put in a microplate luminometer (Pherastar, BMG Labtech), and the luminescence was measured. The IC50 values were evaluated using software for calculating dose-effect relations.

T3 sequence (P04386 1-147 partner limits assumed, one chain of several): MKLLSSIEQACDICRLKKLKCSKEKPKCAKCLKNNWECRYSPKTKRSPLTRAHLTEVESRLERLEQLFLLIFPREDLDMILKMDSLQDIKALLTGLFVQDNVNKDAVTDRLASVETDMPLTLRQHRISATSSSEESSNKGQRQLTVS

As for `C[C@]12CCC(=O)C=C1[C@@H]1C[C@@H]1[C@H]1[C@@H]3[C@@H]4C[C@@H]4[C@@]4(CCC(=O)O4)[C@@]3(C)CC[C@@H]12` [A, 6β, 7β;15β,16β-dimethylene-3-oxo-17-pregn-4-ene-21,17β-carbolactone, reference compound], the “Progesterone receptor (PR) Competition factor” value at progesterone receptor stood at 2.7. Further, the IC50 in assay [1] (MDCK cells, with 1 nM aldosterone, read-out: Mineralocorticoid receptor Antagonism IC50) worked out at 3.3 nM. For the same molecule, the Emax was found to be 64.1% in assay [1] (MDCK, read-out: Mineralocorticoid receptor Antagonism efficacy) and 72.2% in assay [3]. Also, in assay [2], the “Mineralocorticoid receptor (MR) Competition factor” value came to 0.5.
